These are literature values, as cited in US6156769A (priority 2000, dated 2000).

Each structure is given as a SMILES string.

In the series the test system is pruritus. The following applies: i.v. morphine.

Turning to `CN1CC[C@]23c4c5ccc(O)c4O[C@H]2[C@@H](O)C=C[C@H]3[C@H]1C5` [morphine], the generalized itching entry is on record as “about 1 % of patients”.
